Assay results reported in ChEMBL document CHEMBL5344429, “1,3-Substituted β-Carboline Derivatives as Potent Chemotherapy for the Treatment of Cystic Echinococcosis” (J Med Chem, 2023).
Activity calls are given as the source filed them. The rule behind the calls is not given here.

Legend:
Echinococcus granulosus [1] = test: Parasiticidal activity against Echinococcus granulosus protoscolices assessed as death rate at 1 uM incubated for 48 hrs by eosin exclusion test; format: functional
Echinococcus granulosus [2] = test: Parasiticidal activity against Echinococcus granulosus protoscolices […] by eosin exclusion test; format: functional; settings: 1152 h, time 48 day
[3] = Oral bioavailability in Wistar rat at 50 mg/kg, […] by HPLC analysis; format: ADME, organism-based; settings: in vivo
Echinococcus granulosus [4] = test: Parasiticidal activity against Echinococcus granulosus protoscolices assessed as change in ultrastructure at 5 uM incubated for 4 days by scanning electron microscopy; format: functional, organism-based; settings: time 4.0 day
Echinococcus granulosus [5] = test: Parasiticidal activity against Echinococcus granulosus protoscolices assessed as appearance of body shrank at 5 uM incubated for 4 days by scanning electron microscopy analysis; format: functional, organism-based; settings: time 4.0 day
[6] = Cmax in Wistar rat at 5 mg/kg, iv by HPLC analysis; format: ADME, organism-based; set-up: dose 5 mg/kg, route iv; settings: in vivo
Echinococcus granulosus [7] = test: Parasiticidal activity against Echinococcus granulosus protoscolices assessed as death rate at 0.5 uM incubated for 4 days by eosin exclusion test; format: functional; settings: time 4 day
Echinococcus granulosus [8] = test: Parasiticidal activity against Echinococcus granulosus protoscolices assessed as death rate at 5 uM incubated for 4 days by eosin exclusion test; format: functional; settings: time 4 day
Echinococcus granulosus [9] = test: Parasiticidal activity against Echinococcus granulosus protoscolices assessed as loss of suckers at 5 uM incubated for 4 days by scanning electron microscopy; format: functional; settings: time 4.0 day
Echinococcus granulosus [10] = test: Parasiticidal activity against Echinococcus granulosus protoscolices assessed as partial vacuolar change at 5 uM incubated for 4 days by scanning electron microscopy analysis; format: functional, organism-based; settings: time 4.0 day
Echinococcus granulosus [11] = test: Parasiticidal activity against Echinococcus granulosus protoscolices assessed as lethal effect at 0.5 to 5 uM by eosin exclusion test; format: functional, organism-based; settings: dose 0.5-5 µM, TDE = time-dependent effect
Echinococcus granulosus [12] = test: Parasiticidal activity against Echinococcus granulosus protoscolices assessed as appearance of rostellum hooks fall off at 5 uM incubated for 4 days by scanning electron microscopy analysis; format: functional, organism-based; settings: time 4.0 day
Echinococcus granulosus [13] = test: Parasiticidal activity against Echinococcus granulosus protoscolices assessed as loss of hooks at 5 uM incubated for 4 days by scanning electron microscopy; format: functional, organism-based; settings: time 4.0 day
Echinococcus granulosus [14] = test: Parasiticidal activity against Echinococcus granulosus assessed as collapse of germinal layers at 100 uM incubated for 4 days by scanning electron microscopy; format: functional, organism-based; settings: time 4.0 day
Echinococcus granulosus [15] = test: Parasiticidal activity against Echinococcus granulosus cyst assessed as formation of dense aggregates at 100 uM incubated for 4 days by scanning electron microscopy; format: functional, organism-based; settings: time 4.0 day
[16] = AUC (0 to infinity) in Wistar rat at 5 mg/kg, iv by HPLC analysis; format: ADME, organism-based; set-up: dose 5 mg/kg, route iv; settings: in vivo
Echinococcus granulosus [17] = test: Parasiticidal activity against Echinococcus granulosus cyst assessed as seperation from cuticle at 100 uM incubated for 4 days by scanning electron microscopy; format: functional, organism-based; settings: time 4.0 day
Echinococcus granulosus [18] = test: Parasiticidal activity against Echinococcus granulosus protoscolices assessed as lethal effect incubated for 4 days by eosin exclusion test; format: functional, organism-based; settings: dose 0.5-5 µM, time 4.0 day
Echinococcus granulosus [19] = test: Parasiticidal activity against Echinococcus granulosus protoscolices assessed as degeneration of outer skin at 5 uM incubated for 4 days by scanning electron microscopy; format: functional, organism-based; settings: time 4.0 day
Echinococcus granulosus [20] = test: Parasiticidal activity against Echinococcus granulosus protoscolices assessed as increase in death rate at 5 uM incubated for 4 days by darker staining-based light microscopy; format: functional, organism-based; settings: time 4.0 day
Echinococcus granulosus [21] = test: Parasiticidal activity against Echinococcus granulosus protoscolices assessed as appearance of blurred marginal structure at 5 uM incubated for 4 days by scanning electron microscopy analysis; format: functional, organism-based; settings: time 4.0 day
Echinococcus granulosus [22] = test: Parasiticidal activity against Echinococcus granulosus microcyst infected in kunming mouse assessed as mean cyst weight at 50 mg/kg, ip administered for 28 days; format: functional; settings: time 28 day
Echinococcus granulosus [23] = test: Parasiticidal activity against Echinococcus granulosus microcyst infected in kunming mouse assessed as mean cyst weight at 50 mg/kg, ip administered for 14 days; format: functional; settings: time 14 day
Echinococcus granulosus [24] = test: Parasiticidal activity against intraperitoneal cystic Echinococcus granulosus infected in Kunming mouse assessed as appearance of unclear cortex at 50 mg/kg, ip administered for 28 days by TEM analysis; format: functional, organism-based; settings: time 28.0 day
Echinococcus granulosus [25] = test: Parasiticidal activity against Echinococcus granulosus microcyst infected in kunming mouse assessed as mean cyst weight at 12.5 mg/kg, ip administered for 14 days; format: functional; settings: time 14 day
Echinococcus granulosus [26] = test: Parasiticidal activity against Echinococcus granulosus microcyst infected in kunming mouse assessed as mean cyst weight at 25 mg/kg, ip administered for 14 days; format: functional; settings: time 14 day
Echinococcus granulosus [27] = test: Parasiticidal activity against Echinococcus granulosus protoscolices assessed as appearance of partial shedding at 5 uM incubated for 4 days by H and E staining based assay; format: functional, organism-based; settings: time 4.0 day
Echinococcus granulosus [28] = test: Parasiticidal activity against Echinococcus granulosus microcyst infected in kunming mouse assessed as mean cyst weight at 12.5 mg/kg, ip administered for 28 days; format: functional; settings: time 28 day
Echinococcus granulosus [29] = test: Parasiticidal activity against Echinococcus granulosus microcyst infected in kunming mouse assessed as reduction in cyst weight at 50 mg/kg, ip administered for 14 days relative to control; format: functional; set-up: scale not given: the % may be the effect or the level left; settings: time 14 day
Echinococcus granulosus [30] = test: Parasiticidal activity against intraperitoneal cystic Echinococcus granulosus infected in Kunming mouse assessed as decrease number of microvilli at 50 mg/kg, ip administered for 28 days by TEM analysis; format: functional, organism-based; settings: time 28.0 day
Echinococcus granulosus [31] = test: Parasiticidal activity against Echinococcus granulosus microcyst infected in kunming mouse assessed as reduction in cyst weight at 12.5 mg/kg, ip administered for 14 days relative to control; format: functional; set-up: scale not given: the % may be the effect or the level left; settings: time 14 day
Echinococcus granulosus [32] = test: Parasiticidal activity against Echinococcus granulosus microcyst infected in kunming mouse assessed as reduction in cyst weight at 25 mg/kg, ip administered for 14 days relative to control; format: functional; set-up: scale not given: the % may be the effect or the level left; settings: time 14 day
Echinococcus granulosus [33] = test: Parasiticidal activity against intraperitoneal cystic Echinococcus granulosus infected in Kunming mouse assessed as reduction in cell count with clear nucleolus at 50 mg/kg, ip administered for 28 days by TEM analysis; format: functional, organism-based; settings: time 28.0 day
Echinococcus granulosus [34] = test: Parasiticidal activity against Echinococcus granulosus protoscolices assessed as survival rate at 1 uM incubated for 48 hrs by eosin exclusion test; format: functional
Echinococcus granulosus [35] = test: Parasiticidal activity against Echinococcus granulosus microcyst infected in kunming mouse assessed as reduction in cyst weight at 50 mg/kg, ip administered for 28 days relative to control; format: functional; set-up: scale not given: the % may be the effect or the level left; settings: time 28 day
Echinococcus granulosus [36] = test: Parasiticidal activity against Echinococcus granulosus microcyst infected in kunming mouse assessed as mean cyst weight at 25 mg/kg, ip administered for 28 days; format: functional; settings: time 28 day
Echinococcus granulosus [37] = test: Parasiticidal activity against Echinococcus granulosus protoscolices assessed as body shrank with irregular edge at 5 uM incubated for 4 days by H and E staining based assay; format: functional, organism-based; settings: time 4.0 day
Echinococcus granulosus [38] = test: Parasiticidal activity against Echinococcus granulosus protoscolices assessed as appearance of relative completion of sucker at 5 uM incubated for 2 days by scanning electron microscopy; format: functional, organism-based; settings: time 2.0 day
Echinococcus granulosus [39] = test: Parasiticidal activity against Echinococcus granulosus microcyst infected in kunming mouse assessed as reduction in cyst weight at 25 mg/kg, ip administered for 28 days relative to control; format: functional; set-up: scale not given: the % may be the effect or the level left; settings: time 28 day
Echinococcus granulosus [40] = test: Parasiticidal activity against Echinococcus granulosus microcyst infected in kunming mouse assessed as reduction in cyst weight at 12.5 mg/kg, ip administered for 28 days relative to control; format: functional; set-up: scale not given: the % may be the effect or the level left; settings: time 28 day
Echinococcus granulosus [41] = test: Parasiticidal activity against Echinococcus granulosus protoscolices assessed as outer skin and hooks fall off at 5 uM incubated for 2 days by scanning electron microscopy; format: functional, organism-based; settings: time 2.0 day
Echinococcus granulosus [42] = test: Parasiticidal activity against Echinococcus granulosus assessed as cyst destruction at 100 uM incubated for 4 days by scanning electron microscopy; format: functional, organism-based; settings: time 4.0 day
[43] = Neurotoxicity in Kunming mouse assessed as loosely arranged pyramidal cells in brain at 50 mg/kg, ip administered for 28 days by H and E staining based assay; format: toxicity, organism-based; settings: in vivo, 672 h, time 28 day
[44] = Neurotoxicity in Kunming mouse assessed as nuclei damage at 50 mg/kg, ip administered for 28 days by TEM analysis; format: toxicity, organism-based; settings: in vivo, 672 h, time 28 day
[45] = Neurotoxicity in Kunming mouse assessed as effect on heterochromatin at 50 mg/kg, ip administered for 28 days by TEM analysis; format: toxicity, organism-based; settings: in vivo, 672 h, time 28 day
[46] = Neurotoxicity in Kunming mouse assessed as swollen pyramidal cells in brain at 50 mg/kg, ip administered for 28 days by H and E staining based assay; format: toxicity, organism-based; settings: in vivo, 672 h, time 28 day
[47] = Neurotoxicity in Kunming mouse assessed as organelles damage at 50 mg/kg, ip administered for 28 days by TEM analysis; format: toxicity, organism-based; settings: in vivo, 672 h, time 28 day
[48] = Neurotoxicity in Kunming mouse assessed as effect on hippocampal arrangement at 50 mg/kg, ip administered for 28 days by TEM analysis; format: toxicity, organism-based; settings: in vivo, 672 h, time 28 day
[49] = Neurotoxicity in Kunming mouse assessed as effect on hippocampal structure at 50 mg/kg, ip administered for 28 days by TEM analysis; format: toxicity, organism-based; settings: in vivo, 672 h, time 28 day
[50] = Neurotoxicity in Kunming mouse assessed as deformed pyramidal cells in brain at 50 mg/kg, ip administered for 28 days by H and E staining based assay; format: toxicity, organism-based; settings: in vivo, 672 h, time 28 day
Echinococcus granulosus [51] = test: Inhibition of Echinococcus granulosus; format: functional

## COc1ccc(-c2nc(C(=O)Nc3ccc(CN4CCC(N5CCCCC5)CC4)cc3)cc3c2[nH]c2ccccc23)cc1OC
Echinococcus granulosus [1]
  Activity: Active
Echinococcus granulosus [2]
  LC50: 6.49 µM

## COc1ccc(-c2nc(NC(=O)c3ccc(CN4CCC(N5CCCCC5)CC4)cc3)cc3c2[nH]c2ccccc23)cc1OC
[3]
  bioavailability: 26.8%
Echinococcus granulosus [4]
  Activity: Active
Echinococcus granulosus [5]
  Activity: Active
[6]
  Cmax: 1400 ng/mL
Echinococcus granulosus [7]
  Activity: >50%
Echinococcus granulosus [8]
  Activity: >90%
Echinococcus granulosus [9]
  Activity: Active
Echinococcus granulosus [10]
  Activity: Active
Echinococcus granulosus [11]
  Activity: Tde
Echinococcus granulosus [12]
  Activity: Active
Echinococcus granulosus [1]
  Activity: 56.27%
Echinococcus granulosus [13]
  Activity: Active
Echinococcus granulosus [14]
  Activity: Active
Echinococcus granulosus [15]
  Activity: Active
[16]
  AUC(0-inf): 1770 ng·h/mL
Echinococcus granulosus [17]
  Activity: Active
Echinococcus granulosus [18]
  Activity: Dose-Dependent Effect
Echinococcus granulosus [19]
  Activity: Active
Echinococcus granulosus [2]
  LC50: 3.59 µM
Echinococcus granulosus [20]
  Activity: Active
Echinococcus granulosus [21]
  Activity: Active

## COc1cccc(-c2nc(C(=O)Nc3ccc(CN4CCC(N5CCCCC5)CC4)cc3)cc3c2[nH]c2ccccc23)c1OC
Echinococcus granulosus [1]
  Activity: Active
Echinococcus granulosus [2]
  LC50: 5.8 µM

## COc1cc(-c2nc(NC(=O)c3ccc(CN4CCCN(C)CC4)cc3)cc3c2[nH]c2ccccc23)cc(OC)c1OC
Echinococcus granulosus [1]
  Activity: Active
Echinococcus granulosus [2]
  LC50: 16 µM

## CCCSc1ccc2[nH]c(NC(=O)OC)nc2c1 [ALBENDAZOLE]
Echinococcus granulosus [22]
  Activity: 24.2 mg
Echinococcus granulosus [23]
  Activity: 23.3 mg
Echinococcus granulosus [24]
  Activity: Active
Echinococcus granulosus [25]
  Activity: 29.5 mg
Echinococcus granulosus [26]
  Activity: 26.2 mg
Echinococcus granulosus [27]
  Activity: Active
Echinococcus granulosus [28]
  Activity: 26.7 mg
Echinococcus granulosus [29]
  Activity: 54.7%
Echinococcus granulosus [30]
  Activity: Active
Echinococcus granulosus [31]
  Activity: 42.77%
Echinococcus granulosus [32]
  Activity: 49.16%
Echinococcus granulosus [33]
  Activity: Active
Echinococcus granulosus [34]
  Activity: 100%
Echinococcus granulosus [35]
  Activity: 55.4%
Echinococcus granulosus [36]
  Activity: 25.3 mg
Echinococcus granulosus [37]
  Activity: Active
Echinococcus granulosus [38]
  Activity: Active
Echinococcus granulosus [39]
  Activity: 53.45%
Echinococcus granulosus [40]
  Activity: 50.9%
Echinococcus granulosus [41]
  Activity: Active
Echinococcus granulosus [2]
  LC50: 154 µM
Echinococcus granulosus [42]
  Activity: inactive

## COc1ccc(-c2nc(C(=O)Nc3ccc(CN4CCC(N5CCCCC5)CC4)cc3)cc3c2[nH]c2ccccc23)cc1
Echinococcus granulosus [1]
  Activity: Active
Echinococcus granulosus [2]
  LC50: 7.67 µM

## CCCSc1ccc2nc(NC(=O)OC)[nH]c2c1 [ALBENDAZOLE]
[43]
  Activity: Non-Toxic
[44]
  Activity: Non-Toxic
[45]
  Activity: Non-Toxic
[46]
  Activity: Non-Toxic
[47]
  Activity: Non-Toxic
[48]
  Activity: Non-Toxic
[49]
  Activity: Non-Toxic
[50]
  Activity: Non-Toxic

## CCCCn1c2ccccc2c2ccnc(-c3ccc(OC)cc3)c21
Echinococcus granulosus [51]
  LC50: 47.8 µM
